What all share (format): cell-based
In assay [1] the test system is Trypanosoma cruzi (Tulahuen C2C4 strain). The experiment in a line: American trypanosome protozoa growth inhibition screening test. How it is done:
In the present experiment, amastigote and trypomastigote infected with rat L6 cells of protozoa of Trypanosoma cruzi (Tulahuen C2C4 starin) were used. As medium used in the test, RPMI 1640 medium containing L6 cells was supplemented so that L-glutamine (200 mM) become 1%, fetal bovine serum becomes 10%, which was cultured under CO2 concentration 5%, at 37° C.
The compounds of the present invention to be used in the present test and the positive control drug (benznidazole) were dissolved in DMSO to make a test solution of a predetermined concentration.
A medium containing 5×10^3 protozoa was added to wells of a 96-well culture plate, and pre-cultured for 48 hours. After replacing the medium, test solution containing drug of a predetermined concentration or a drug-free DMSO was added. Test solutions were taken by duplicates.
After culturing the culture plate in an incubator for 96 hours, growth inhibition activity was tested. Test was conducted as follows. 50 μL of CPRG/Nonidet was added to each well, and allowed to rest for 2 to 6 hours. Next, the culture plate was placed on a fluorescent micro-plate reader. The absorbance was measured at 540 nm, and the trypanosome infection rate of the test solution added group and control group were calculated.
Growth inhibition rate (%)={1−(b−a)/(c−a)}×100 • a: early infection rate • b: infection rate when test solution was added • c: infection rate of the control

The next assay relates to Rat L6 cells. Nature of the assay: Growth inhibition test of rat L6 cells. How it is done: Rat derived-L6 cells (rat skeletal myoblast cell) were used. A medium, RPMI1640 medium was supplemented so that L-glutamin (200 mM) is 1%, and fetal bovine serum 10%, and the medium was cultured under CO2 concentration 5%, at 37° C.
The compounds of the present invention and the control drugs to be used in the test were dissolved in DMSO, to make a test solution of a predetermined concentration.
Pre-culture was conducted and medium containing cells which have entered the logarithmic growth phase was taken to wells of a 96-well culture plate. Then, a test solution containing drug of a predetermined concentration or a drug-free DMSO was added. Test solutions were taken by duplicates.
Culture plate was cultured for 72 hours in an incubator, to test the growth inhibition activity. Test was conducted as follows. 10 μL of Alamar Blue aqueous solution was added to each well, and the resultant was further cultured for 2 hours. Next, the culture plate was placed on a fluorescent micro-plate reader (Spectramax Gemeni XS; US Molecular Device), radiated at an excited wavelength of 536 nm. Fluorescent intensity was measured at 588 nm, and residual rate of L6 cells of the test solution added group, and that of the control was calculated.
Growth inhibition rate (%)={(C−A)/(B−A)}×100 • A: Primary cell count • B: cell count of control, 3 days after • C: cell count of wells added with a sample, 3 days after 4. Determination of Drug Efficacy Against Chloroquine Resistant-Plasmodium

Another assay concerns Plasmodium falciparum K1. The experiment in a line: Chloroquine resistant-Plasmodium falciparum growth inhibition screening test. As to conditions: for Selective toxicity: EC50 against rat L6 cells / EC50 against P. falciparum K1; for EC50: Plasmodium falciparum, Table 2, unit inferred, chloroquine-resistant K1 strain, read-out: P. falciparum K1. How it is done:
In the present experiment, protozoa of plasmodium falsiparum K1 strain was used. RPMI-1640 medium sterilized with a filter to which human serum was added to be 5%, was used in the experiment. Malarial parasites were cultured under 3% O2 concentration, 4% CO2 concentration, 93% N2 concentration, and at a temperature of 37° C.
The compounds of the present invention to be used in the present test and the positive control drug (chloroquine) were dissolved in DMSO to make a test solution of a predetermined concentration. Cultured malaria parasite infected-erythrocytes were collected by centrifugation, and diluted with non-infected erythrocyte so that the early infection rate was 0.15%. Hematocrit level at that time was 2.5%.
200 μL of malaria infected solution was added to wells of a 96-well culture plate, and adjusted by adding a test solution containing drug of a predetermined concentration or a drug-free DMSO. Test solutions were taken by duplicates.
[…] […] Radiation intensity was measured with a beta plate liquid scintillation counter (Wallac), and malarial parasite infection rates of the test solution added group and the control group were calculated.
Growth inhibition rate (%)={1−(b−a)/(c−a)}×100 • a: early infection rate • b: infection rate when test solution was added • c: infection rate of the control 3. Growth Inhibition Test of Rat L6 Cells
Antimalarial activity of a sample was estimated from EC50 values of the sample against chloroquine resistant-Plasmodium falciparum and rat L6 cells. […] It means that the larger the value of the selection toxity, the less the risk of the side effect is. Chemotherapy index=(EC50 value of a sample against rat L6 cells)/(EC50 value of a sample against chloroquine resistant-Plasmodium falsiparum)

The mark [2] stands for this setting: Table 6, unit inferred, read-out: Trypanosoma cruzi.
The mark [3] stands for this setting: Table 2, unit inferred, 72 hours, read-out: Cytoxicity L6.

EC50 and Selective toxicity data for three molecules are collected here from US8288374B2, “Medicinal composition containing benzo[a]phenoxazine compound as the active ingredient for prevention or treatment of protozoal disease” (Hoshi University, priority 2008, dated 2012).

Values after ≈ are worked out from the molar mass of the structure shown. Read-outs that look alike come from different tables or passages of the source.

`CCN(CC)c1ccc2nc3c4ccccc4c(=Nc4ccc5ccccc5n4)cc-3oc2c1` [Compound 1H, N,N-Diethyl-5-(quinolin-2-ylimino)-5H-benzo[a]phenoxazin-9-amine]: the EC50 in assay [1] (Trypanosoma cruzi, Table 5, in rat L6 cells, 96 hours, CPRG/Nonidet, read-out: 50% Growth inhibition concentration Trypanosoma cruzi) was 3.31 µg/mL (≈ 7.45 µM); in the assay on Rat L6 cells (Table 1, 72 hours, Alamar Blue, read-out: 50% Growth inhibition concentration Cytoxicity L6), 30.1 µg/mL (≈ 67.8 µM). The same molecule came in with a Selective toxicity in the assay with Plasmodium falciparum K1 of 2513.
On to `CCN(CCNS(C)(=O)=O)c1cc(C)c2nc3c4ccccc4c(=Nc4ccncc4)cc-3oc2c1` [Compound 1R, N-Ethyl-N-(2-methansulfonamidylethyl)-11-methyl-5-(pyridine-4-ylimino)-5H-benzo[a]phenoxazin-9-amine], for which the figures for the EC50 (in assay [1] (setting [2]); with Rat L6 cells (setting [3]); in the assay on Plasmodium falciparum K1) were 2.01 µg/mL (≈ 4.01 µM), 7.97 µg/mL (≈ 15.9 µM) and 0.009 µg/mL (≈ 0.0179 µM), respectively. This molecule also came in with a Selective toxicity in the assay on Plasmodium falciparum K1 of 885.
Consider `CCN(CCNS(C)(=O)=O)c1cc(C)c2nc3c4ccccc4c(=Nc4ccccn4)cc-3oc2c1` [Compound 1S, N-Ethyl-N-(2-methansulfonamidylethyl)-11-methyl-5-(pyridine-2-ylimino)-5H-benzo[a]phenoxazin-9-amine], for which the EC50 in assay [1] (setting [2]) stood at 0.376 µg/mL (≈ 0.75 µM); in the assay with Rat L6 cells (setting [3]) it was 0.307 µg/mL (≈ 0.612 µM); in the assay with Plasmodium falciparum K1, 0.007 µg/mL (≈ 0.014 µM). In the assay on Plasmodium falciparum K1, the Selective toxicity is on record as 43.
